Assay results reported in ChEMBL document CHEMBL1909294, “Translating clinical findings into knowledge in drug safety evaluation--drug induced liver injury prediction system (DILIps)” (PLoS Comput Biol, 2011).
Where a SMILES comes first, the peptide text is derived from it. Bridges are numbered along the chain shown (N, C = ends). [ ]: non-standard residue; d: D form. The star is where a group is joined. Ileψ(thiazoline)Cys = CC[C@H](C)[C@H](N)C1=N[C@H](C(=O)*)CS1; dOrn = NCCC[C@@H](N)C(=O)O

Tests used:
[1] = system: Hepatotoxicity;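 as to HepSE Combined Scores: combined hepatic side effect score as listed in the training data of the Drug Induced Liver Injury Prediction System (DILIps)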;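 as to HepSE cholelithiasis: hepatic side effect score for cholelithiasis, drawn from the DILIps training data for predicting drug-induced liver injury; call rule not given here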;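 as to HepSE elevated liver function tests: hepatic side effect score for raised liver function tests, as recorded in the DILIps training set used for predicting drug-induced liver injury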; as to HepSE hepatic failure: call rule not given here;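 as to HepSE hepatic necrosis: score of hepatic side effects for hepatic necrosis, drawn from the training data of DILIps, a prediction system for drug-induced liver injury; call rule not given here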;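 as to HepSE liver function tests abnormal: hepatic side effect score taken from the DILIps (drug-induced liver injury prediction system) training data, here covering abnormal liver function test findings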
[2] = system: Hepatotoxicity; remark: listed apart in the source;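 as to HepSE Combined Scores: combined hepatic side effect score as listed in the training data of the Drug Induced Liver Injury Prediction System (DILIps)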;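 as to HepSE cholelithiasis: hepatic side effect score for cholelithiasis, drawn from the DILIps training data for predicting drug-induced liver injury; call rule not given here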;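 as to HepSE elevated liver function tests: hepatic side effect score for raised liver function tests, as recorded in the DILIps training set used for predicting drug-induced liver injury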; as to HepSE hepatic failure: call rule not given here;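 as to HepSE hepatic necrosis: score of hepatic side effects for hepatic necrosis, drawn from the training data of DILIps, a prediction system for drug-induced liver injury; call rule not given here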;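 as to HepSE liver function tests abnormal: hepatic side effect score taken from the DILIps (drug-induced liver injury prediction system) training data, here covering abnormal liver function test findings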
[3] = system: Hepatotoxicity; remark: listed apart in the source;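 as to HepSE Combined Scores: combined hepatic side effect score as listed in the training data of the Drug Induced Liver Injury Prediction System (DILIps)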;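 as to HepSE cholelithiasis: hepatic side effect score for cholelithiasis, drawn from the DILIps training data for predicting drug-induced liver injury; call rule not given here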;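 as to HepSE elevated liver function tests: hepatic side effect score for raised liver function tests, as recorded in the DILIps training set used for predicting drug-induced liver injury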; as to HepSE hepatic failure: call rule not given here;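 as to HepSE hepatic necrosis: score of hepatic side effects for hepatic necrosis, drawn from the training data of DILIps, a prediction system for drug-induced liver injury; call rule not given here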;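 as to HepSE liver function tests abnormal: hepatic side effect score taken from the DILIps (drug-induced liver injury prediction system) training data, here covering abnormal liver function test findings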
[4] = system: Hepatotoxicity; remark: listed apart in the source;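 as to HepSE Combined Scores: combined hepatic side effect score as listed in the training data of the Drug Induced Liver Injury Prediction System (DILIps)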;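 as to HepSE cholelithiasis: hepatic side effect score for cholelithiasis, drawn from the DILIps training data for predicting drug-induced liver injury; call rule not given here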;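 as to HepSE elevated liver function tests: hepatic side effect score for raised liver function tests, as recorded in the DILIps training set used for predicting drug-induced liver injury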; as to HepSE hepatic failure: call rule not given here;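 as to HepSE hepatic necrosis: score of hepatic side effects for hepatic necrosis, drawn from the training data of DILIps, a prediction system for drug-induced liver injury; call rule not given here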;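 as to HepSE liver function tests abnormal: hepatic side effect score taken from the DILIps (drug-induced liver injury prediction system) training data, here covering abnormal liver function test findings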
[5] = system: Hepatotoxicity; remark: listed apart in the source; as to HepSE hepatic failure: call rule not given here
[6] = system: Hepatotoxicity; remark: listed apart in the source; as to HepSE hepatic failure: call rule not given here
[7] = system: Hepatotoxicity; remark: listed apart in the source
[8] = system: Hepatotoxicity; remark: listed apart in the source
[9] = system: Hepatotoxicity; remark: listed apart in the source
[10] = system: Hepatotoxicity; remark: listed apart in the source
[11] = system: Hepatotoxicity; remark: listed apart in the source
[12] = system: Hepatotoxicity; remark: listed apart in the source
[13] = system: Hepatotoxicity; remark: listed apart in the source
[14] = system: Hepatotoxicity; remark: listed apart in the source

| SMILES | HepSE_hepatic necrosis [1] | HepSE_cholelithiasis [2] | HepSE_bilirubinemia [3] | HepSE_liver function tests abnormal [4] | HepSE_hepatitis [5] | HepSE_hepatic failure [6] | HepSE_elevated liver function tests [7] | HepSE_liver fatty [8] | HepSE_Combined Scores [9] | HepSE_liver disease [10] | HepSE_cirrhosis [11] | HepSE_cholecystitis [12] | HepSE_hepatomegaly [13] | HepSE_jaundice [14] | also measured |
| --- | --- | --- | --- | --- | --- | --- | --- | --- | --- | --- | --- | --- | --- | --- | --- |
| O=C1C(O)=C([C@H]2CC[C@H](c3ccc(Cl)cc3)CC2)C(=O)c2ccccc21 [ATOVAQUONE] | 0 | 0 | 0 | 0 | 1 | 1 | 0 | 0 | 2 | 0 | 0 | 0 | 0 | 0 | – |
| Cn1cnc([N+](=O)[O-])c1Sc1ncnc2nc[nH]c12 [AZATHIOPRINE] | – | – | – | – | – | – | – | – | – | – | – | – | – | – | HepSE_hepatic necrosis ([1]; Liver): 0; HepSE_cholelithiasis ([2]; Liver): 0; HepSE_bilirubinemia ([3]; Liver): 0; HepSE_liver function tests abnormal ([4]; Liver): 0; HepSE_hepatitis ([5]; Liver): 0; HepSE_hepatic failure ([6]; Liver): 0; HepSE_elevated liver function tests ([7]; Liver): 0; HepSE_liver fatty ([8]; Liver): 0; HepSE_Combined Scores ([9]; Liver): 0; HepSE_liver disease ([10]; Liver): 0; HepSE_cirrhosis ([11]; Liver): 0; HepSE_cholecystitis ([12]; Liver): 0; HepSE_hepatomegaly ([13]; Liver): 0; HepSE_jaundice ([14]; Liver): 0 |
| O=C(O)CCCCCCCC(=O)O [AZELAIC ACID] | 0 | 0 | 0 | 0 | 0 | 0 | 0 | 0 | 0 | 0 | 0 | 0 | 0 | 0 | – |
| CN1CCCC(n2nc(Cc3ccc(Cl)cc3)c3ccccc3c2=O)CC1 (stereo unspecified) [AZELASTINE] | 0 | 0 | 0 | 0 | 0 | 0 | 0 | 0 | 0 | 0 | 0 | 0 | 0 | 0 | – |
| CC[C@H]1OC(=O)[C@H](C)[C@@H](O[C@H]2C[C@@](C)(OC)[C@@H](O)[C@H](C)O2)[C@H](C)[C@@H](O[C@@H]2O[C@H](C)C[C@H](N(C)C)[C@H]2O)[C@](C)(O)C[C@@H](C)CN(C)[C@H](C)[C@@H](O)[C@]1(C)O [AZITHROMYCIN] | 1 | 0 | 0 | 1 | 1 | 1 | 0 | 0 | 5 | 0 | 0 | 0 | 0 | 1 | – |
| C[C@H]1[C@H](NC(=O)/C(=N\OC(C)(C)C(=O)O)c2csc(N)n2)C(=O)N1S(=O)(=O)O [AZTREONAM] | 0 | 0 | 0 | 0 | 1 | 0 | 0 | 0 | 2 | 0 | 0 | 0 | 0 | 1 | – |
| CC[C@H](C)[C@H](N)C1=N[C@H](C(=O)N[C@@H](CC(C)C)C(=O)N[C@H](CCC(=O)O)C(=O)N[C@H](C(=O)N[C@H]2CCCCNC(=O)[C@H](CC(N)=O)NC(=O)[C@@H](CC(=O)O)NC(=O)[C@H](Cc3cnc[nH]3)NC(=O)[C@@H](Cc3ccccc3)NC(=O)[C@H]([C@@H](C)CC)NC(=O)[C@@H](CCCN)NC2=O)[C@@H](C)CC)CS1 [BACITRACIN] ({Ileψ(thiazoline)Cys}-L[dE]IK[dOrn]I[dF]H[dD]N; lactam 4-C) | 0 | 0 | 0 | 0 | 0 | 0 | 0 | 0 | 0 | 0 | 0 | 0 | 0 | 0 | – |
| NCC(CC(=O)O)c1ccc(Cl)cc1 (stereo unspecified) [BACLOFEN] | 0 | 0 | 0 | 0 | 0 | 0 | 0 | 0 | 0 | 0 | 0 | 0 | 0 | 0 | – |
| O=C(O)CCNC(=O)c1ccc(/N=N/c2ccc(O)c(C(=O)O)c2)cc1 [BALSALAZIDE] | 1 | 0 | 0 | 0 | 0 | 1 | 1 | 0 | 5 | 0 | 1 | 0 | 0 | 1 | – |
